The record followed here is PMC9293909 (Nature Communications, 2022).

The test system of data set [1] is postsynaptic A1Rs, CA1 pyramidal cells. Nature of the data set: Whole-cell patch-clamp, membrane potential of CA1 pyramidal cells. It counts as cell-based, rat. Here is the method: (§1) Rats were kept on a 12-hour light-dark cycle with slices made 90 min after entering the light cycle. […] The brain was removed, cut down the midline and the two sides of the brain stuck down to a metal base plate using cyanoacrylate glue. […] Slices were stored at 34 °C for 1–6 h in aCSF (1 mM MgCl2, 2 mM CaCl2) before use.
(§2) A slice was transferred to the recording chamber and perfused at 3 ml min^−1 with aCSF at 32 ± 0.5 °C. Slices were visualised using IR-DIC optics with an Olympus BX151W microscope (Scientifica) and a CCD camera (Hitachi). […] Voltage and current recordings were obtained using an Axon Multiclamp 700B amplifier (Molecular Devices, USA) and digitised at 20 KHz. Data acquisition and analysis was performed using pClamp 10 (Molecular Devices, USA). For voltage-clamp experiments, CA1 pyramidal cells were held at −60 mV. Peptides to interfere with G protein signalling were introduced via the patch pipette into the recorded cell.

Data set [2] has as its system native presynaptic A1Rs, rat hippocampal slices. The data set can be described thus: Extracellular fEPSP recording, inhibition of excitatory synaptic transmission in hippocampal slices. It counts as cell-based. The procedure:
as §1
A slice was transferred to the recording chamber, submerged in aCSF and perfused at 4–6 ml min^−1 (32 ± 0.5 °C). The slice was placed on a grid allowing perfusion above and below the tissue and all tubing was gastight (to prevent loss of oxygen). […] Field excitatory postsynaptic potentials (fEPSPs) were evoked with either an isolated pulse stimulator model 2100 (AM Systems, WA) or ISO-Flex (AMPI, Jerusalem, Israel). For fEPSPs a 10–20 min baseline was recorded at a stimulus intensity that gave 40-50% of the maximal response. […] For fEPSP slope, a 1 ms linear region after the fibre volley was measured. Extracellular recordings were made independently on two electrophysiology rigs.
Statistical significance was tested as indicated in the text using paired or unpaired two-tailed t-tests or one-way or two-way ANOVAs with repeated measures (RM) as appropriate. Bonferroni corrections for multiple comparisons were performed. All in vitro cell signalling assay data was analysed using Prism 8.4 (Graphpad software, San Diego, CA), with all concentration-response curves being fitted using a 3 parameter logistic equation to calculate response range and IC50. All cAMP data was normalised to a forskolin concentration-response curve ran in parallel to each assay.

The nature of another data set: in vitro. As to conditions: human, plasma.
Data set [3] can be described thus: Half-life determination in human plasma. As to conditions: UoBern01 at 1.00E-06 M.
Description: (§3) At the end of incubation at each of the time points (0, 0.5, 1, 1.5, 2 h), acetonitrile was added to the incubation mixture followed by centrifugation. Samples were analysed by HPLC-MS/MS and peak areas were recorded for each analyte. The area of precursor compound remaining after each of the time points relative to the amount remaining at time 0, expressed as a percentage, was calculated. Subsequently, the t1/2 is estimated from the slope of the initial linear range of the logarithmic curve of compound remaining (%) versus time, assuming first-order kinetics.
Data set [4] relates to CA1 pyramidal cells (Goa / Gob signalling). The data set can be described thus: Whole-cell voltage-clamp, adenosine-induced outward current with intracellular G protein interfering peptides. It counts as cell-based, rat. As to conditions: adenosine 10 µM, peptide 100 µM, held at −60 mV. The procedure: as §2
Drugs were made up as stock solutions (1-10 mM) and then diluted in aCSF or saline on the day of use. […] MRS1523 was purchased from Cayman Chemicals (Cambridge Bioscience Ltd., Cambridge UK). […] CA200645 and peptides for interfering with G protein signalling were obtained from Hello Bio (Bristol, UK) and were based on published sequences. […] The scrambled version was […]. […] Peptides were made up as stock solutions (2 mM) and stored at −20 °C. The stock solutions were dissolved in filtered intracellular solution just before use.

Several values for one entry are separate records, joined by “and”; a condition that tells them apart may be missing. Equal entries are not always repeated.

Description for in vitro: as §3

On to `CNC(=O)[C@H]1O[C@@H](n2cnc3c(NCc4cccc(I)c4)nc(Cl)nc32)[C@H](O)[C@@H]1O` [2-Cl-IB-MECA], for which the “effect on membrane potential” value in data set [1] (1 µM) is on record as “had no effect on membrane potential”.

Turning to `OC[C@H]1O[C@@H](n2cnc3c(N[C@@H]4CCC[C@H]4OCc4ccccc4)ncnc32)[C@H](O)[C@@H]1O` [BnOCPA, (2 R,3 R,4 S,5 R)−2-(6-{[(1 R,2 R)−2-benzyloxycyclopentyl]amino}−9H-purin-9-yl)−5-(hydroxymethyl)oxolane-3,4-diol], the “time constant of inhibition of synaptic transmission (single exponential)” value in data set [2] (300 nM) worked out at 2.2 min.

By IC50 is commonly meant the concentration that inhibits the measured activity by half. `CCNC(=O)[C@H]1O[C@@H](n2cnc3c(N)ncnc32)[C@H](O)[C@@H]1O` [NECA, 5′-(N-Ethylcarboxamido) adenosine]: the half-inhibitory concentration (IC50) in data set [2] (fEPSP, rat hippocampal slices, read-out: IC50 inhibition of synaptic transmission) turned out to be 8.3 ± 3 nM.

As a reminder, the half-life is the time needed for the level to fall by half in the phase considered. Low values mean rapid decline, high ones slow decline. As to `CCCOc1cc(N)ccc1C(=O)OCCN(CC)CC` [Propoxycaine], in the data set “in vitro”, the half-life was 3.8 min. The “2nd / Half-Life” value in data set [3] came out at 3.4 min. Moreover, the “Mean / Half-Life” value in data set [3] is 4 min. Besides, the “1st / % Compound Remaining” value is recorded as 100% in data set [3] (incubation 0 minutes); 0.4% in data set [3] (incubation 30 minutes); 0.3% in data set [3] (incubation 60 minutes); 0.3% in data set [3] (incubation 90 minutes); 0.1% in data set [3] (incubation 120 minutes). Moreover, the “2nd / % Compound Remaining” value in data set [3] (incubation 0 minutes) is 100%; in data set [3] (incubation 30 minutes), 0.2%; in data set [3] (incubation 60 minutes), 0.2%; in data set [3] (incubation 90 minutes) it was 0.5%; in data set [3] (incubation 120 minutes) it was 0.3%. For the same compound, the “Mean / % Compound Remaining” value is listed as 100% in data set [3] (incubation 0 minutes); 0.3% in data set [3] (incubation 30 minutes); 0.3% in data set [3] (incubation 60 minutes); 0.4% in data set [3] (incubation 90 minutes); 0.2% in data set [3] (incubation 120 minutes).

As for `NCC(CC(=O)O)c1ccc(Cl)cc1` (centres unmarked) [baclofen], the results for the membrane hyperpolarisation in data set [1] (baclofen 10 µM in the presence of BnOCPA 300 nM) and in data set [1] (baclofen in control conditions) were 6.5 ± 0.43 mV and 6.3 ± 0.76 mV, respectively.

As to “LNRGNAYLCIGMG [Goa SCR, scrambled version of the Goa interfering peptide]”, the “adenosine-induced outward current with intracellular peptide” value is 45.8 pA and 40.3 pA and 52.5 pA and 32 pA and 47 pA and 43.9 pA and 42 pA in data set [4]; 43.4 ± 2.4 pA in data set [4] (listed as scrambled Goa peptide); 43.36 pA in data set [4] (mean).
